{"source": "patent US12559529B2", "about": "“NPY2 receptor agonists” (Boehringer Ingelheim International GmbH, priority 2019, dated 2026)", "key": {"[1]": {"target": "T1, Human Neuropeptide Y2 Receptor (Homo sapiens, UniProt P49146)", "T1 construct": "purchased CHEMICON HTS066M", "T1 sequence (P49146 1-381)": "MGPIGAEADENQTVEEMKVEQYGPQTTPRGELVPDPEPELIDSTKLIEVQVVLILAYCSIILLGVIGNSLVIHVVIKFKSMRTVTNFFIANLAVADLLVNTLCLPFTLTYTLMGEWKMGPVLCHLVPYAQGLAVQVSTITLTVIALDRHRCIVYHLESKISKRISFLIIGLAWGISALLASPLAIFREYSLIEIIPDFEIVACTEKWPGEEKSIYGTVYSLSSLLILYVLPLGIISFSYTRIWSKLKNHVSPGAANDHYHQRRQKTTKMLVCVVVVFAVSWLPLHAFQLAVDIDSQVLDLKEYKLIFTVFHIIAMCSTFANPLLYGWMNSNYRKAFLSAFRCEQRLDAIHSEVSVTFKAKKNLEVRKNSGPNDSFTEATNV", "test": "Radioligand binding competition assay (RLB)", "conditions": "Table 3; human 125I-PYY (1-36) 0.02 nM, Y2 receptor membranes; read-out: Ki", "method_in_brief": "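Membranes from cells expressing human Y2 receptor (0.5 μg protein/well) were incubated with radioligand and serially diluted peptides in 50 mM HEPES, 5 mM MgCl2, 1 mM CaCl2, 0.2% ovalbumin, pH 7.4, for 2 h at room temperature with shaking. Bound radioactivity was collected by filtration and counted; IC50 from sigmoidal nonlinear regression.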"}, "normal NMRI mice": {"tested_on": "normal NMRI mice", "test": "Effect on acute food intake in normal NMRI mice", "assay_type": "in vivo", "conditions": "male NMRI mice, 10 nmol/kg subcutaneously once", "procedure": "Male NMRI mice were obtained from Charles River (Charles River, Research Models & Services Germany GmbH) or from Jan Vier (Jan Vier Labs, France) at 5 weeks of age. […] Room temperature was controlled to 21° C.±1° C., with 60%+20% humidity.\nAnimals were transferred 5-7 days before the start of the study to a real-time food intake monitoring system, HM-2 system (MBRose, Denmark), to allow acclimatization to experimental conditions. As the animals were uniquely identified with microchips, each individual animal was identified by its microchip upon entry and exit from the food channel. Randomization of the mice for each study group (n=7-8) was based on body weight measured the day before the start of the study. A vehicle-treated (50 mM phosphate buffer pH7 with 5% Mannitol) group was included in each experiment. Six hours before the start of the night phase animals were fasted. One hour before the dark phase animals were dosed once subcutaneously (10 nmol/kg) with test peptide. […] The food intake of the treated groups was normalized (in %) to the average food intake of the group receiving vehicle (Table 7). Statistical significance was evaluated using One-way analysis of variance with Turkey's multiple comparison test. P<0.05 was considered statistically significant."}}, "note": "*1 amine or outer side, *2 acyl side, *3 side chain or, on linkers, in order; H or OH if unused. Where a SMILES comes first, the peptide text is derived from it. Side-chain parts run from the residue outwards. The star is where a group is joined. C18 diacid = O=C(O)CCCCCCCCCCCCCCCCC(=O)*; γGlu = O=C(O)[C@H](CCC(=O)[*:2])N[*:1]; Isovaleryl = CC(C)CC(=O)*; AEEA = NCCOCCOCC(=O)O"}
{"smiles": "CC(C)CC(=O)N[C@@H](C)C(=O)N1CCC[C@H]1C(=O)N[C@@H](CCC(=O)O)C(=O)N[C@@H](CCCCNC(=O)COCCOCCNC(=O)COCCOCCNC(=O)CC[C@H](NC(=O)CCCCCCCCCCCCCCCCC(=O)O)C(=O)O)C(=O)N1CCC[C@H]1C(=O)N[C@@H](CCC(=O)O)C(=O)N[C@@H](CCC(=O)O)C(=O)N[C@@H](CCC(=O)O)C(=O)N[C@@H](C)C(=O)N[C@@H](CO)C(=O)N1CCC[C@H]1C(=O)N[C@@H](C)C(=O)N[C@@H](CCC(=O)O)C(=O)N[C@@H](CC(C)C)C(=O)N[C@@H](CCC(N)=O)C(=O)N[C@@H](CCCNC(=N)N)C(=O)N[C@@H](Cc1ccc(O)cc1)C(=O)N[C@@H](Cc1ccc(O)cc1)C(=O)N[C@H](C(=O)N[C@@H](CO)C(=O)N[C@@H](CC(C)C)C(=O)N[C@@H](CCCNC(=N)N)C(=O)N[C@@H](Cc1c[nH]cn1)C(=O)N[C@@H](Cc1ccc(O)cc1)C(=O)N[C@@H](Cc1ccc(O)cc1)C(=O)N[C@@H](CC(N)=O)C(=O)N[C@@H](Cc1c[nH]c2ccccc12)C(=O)N[C@@H](CC(C)C)C(=O)N[C@H](C(=O)N[C@@H](CCCNC(=N)N)C(=O)N[C@@H](CCC(N)=O)C(=O)N[C@@H](CCCNC(=N)N)C(=O)N[C@@H](Cc1ccc(O)cc1)C(N)=O)[C@@H](C)O)C(C)C", "note": "[Compound 3, N{alpha-4}-(3-methylbutanoyl)-N{epsilon-7}-[2-(2-{2-[2-(2-{2-[(4S)-4-carboxy-4-(17-carboxyheptadecanamido)butanamido]ethoxy}ethoxy)acetamido]ethoxy}ethoxy)acetamido]-[4A,7K,9E,11E,15A,18Q,22V,28Y,30W,31L]hPYY (4-36)] (Isovaleryl-APEK([AEEA-AEEA-γGlu-C18 diacid])PEEEASPAELQRYYVSLRHYYNWLTRQRY-NH2)", "values": [{"measurement": "Ki", "setting": "[1]", "value": 3.14, "unit": "nM"}, {"measurement": "Acute Food Intake 24 h [% vehicle]", "setting": "normal NMRI mice", "value": 62, "unit": "% vehicle"}]}
{"smiles": "CC(C)CC(=O)N[C@@H](C)C(=O)N1CCC[C@H]1C(=O)N[C@@H](CCC(=O)O)C(=O)N[C@@H](CCCCNC(=O)COCCOCCNC(=O)COCCOCCNC(=O)CC[C@H](NC(=O)CCCCCCCCCCCCCCCCC(=O)O)C(=O)O)C(=O)N1CCC[C@H]1C(=O)N[C@@H](CCC(=O)O)C(=O)N[C@@H](CCC(=O)O)C(=O)N[C@@H](CC(=O)O)C(=O)N[C@@H](C)C(=O)N[C@@H](CO)C(=O)N1CCC[C@H]1C(=O)N[C@@H](CCC(=O)O)C(=O)N[C@@H](CCC(=O)O)C(=O)N[C@@H](CC(C)C)C(=O)N[C@@H](CCC(N)=O)C(=O)N[C@@H](C)C(=O)N[C@@H](Cc1ccc(O)cc1)C(=O)N[C@@H](Cc1ccc(O)cc1)C(=O)N[C@H](C(=O)N[C@@H](CO)C(=O)N[C@@H](CC(C)C)C(=O)N[C@@H](CCCNC(=N)N)C(=O)N[C@@H](Cc1c[nH]cn1)C(=O)N[C@@H](Cc1ccc(O)cc1)C(=O)N[C@@H](Cc1ccc(O)cc1)C(=O)N[C@@H](CC(N)=O)C(=O)N[C@@H](Cc1c[nH]c2ccccc12)C(=O)N[C@@H](CC(C)C)C(=O)N[C@H](C(=O)N[C@@H](CCCNC(=N)N)C(=O)N[C@@H](CCC(N)=O)C(=O)N[C@@H](CCCNC(=N)N)C(=O)N[C@@H](Cc1ccc(O)cc1)C(N)=O)[C@@H](C)O)C(C)C", "note": "[Compound 7, N{alpha-4}-(3-methylbutanoyl)-N{epsilon-7}-[2-(2-{2-[2-(2-{2-[(4S)-4-carboxy-4-(17-carboxyheptadecanamido)butanamido]ethoxy}ethoxy)acetamido]ethoxy}ethoxy)acetamido]-[4A,7K,9E,18Q,19A,22V,28Y,30W,31L]hPYY (4-36)]", "values": [{"measurement": "Ki", "setting": "[1]", "value": 1.02, "unit": "nM"}, {"measurement": "Acute Food Intake 24 h [% vehicle]", "setting": "normal NMRI mice", "value": 47, "unit": "% vehicle"}]}
{"smiles": "CC[C@H](C)[C@H](NC(=O)[C@H](CCC(=O)O)NC(=O)[C@H](CCC(=O)O)NC(=O)[C@@H]1CCCN1C(=O)[C@H](CO)NC(=O)[C@H](C)NC(=O)[C@H](CC(=O)O)NC(=O)[C@H](CCC(=O)O)NC(=O)[C@H](CCC(=O)O)NC(=O)[C@@H]1CCCN1C(=O)[C@H](CCCCNC(=O)COCCOCCNC(=O)COCCOCCNC(=O)CC[C@H](NC(=O)CCCCCCCCCCCCCCCCC(=O)O)C(=O)O)NC(=O)[C@H](CCC(=O)O)NC(=O)[C@@H]1CCCN1C(=O)[C@H](C)NC(=O)CC(C)C)C(=O)N[C@@H](CCC(N)=O)C(=O)N[C@@H](CCCNC(=N)N)C(=O)N[C@@H](Cc1ccc(O)cc1)C(=O)N[C@@H](Cc1ccc(O)cc1)C(=O)N[C@H](C(=O)N[C@@H](CCC(=O)O)C(=O)N[C@@H](CC(C)C)C(=O)N[C@@H](CCCNC(=N)N)C(=O)N[C@@H](Cc1c[nH]cn1)C(=O)N[C@@H](Cc1ccc(O)cc1)C(=O)N[C@@H](Cc1ccc(O)cc1)C(=O)N[C@@H](CC(N)=O)C(=O)N[C@@H](Cc1c[nH]c2ccccc12)C(=O)N[C@@H](CC(C)C)C(=O)N[C@H](C(=O)N[C@@H](CCCNC(=N)N)C(=O)N[C@@H](CCC(N)=O)C(=O)N[C@@H](CCCNC(=N)N)C(=O)N[C@@H](Cc1ccc(O)cc1)C(N)=O)[C@@H](C)O)C(C)C", "note": "[Compound 9, N{alpha-4}-(3-methylbutanoyl)-N{epsilon-7}-[2-(2-{2-[2-(2-{2-[(4S)-4-carboxy-4-(17-carboxyheptadecanamido)butanamido]ethoxy}ethoxy)acetamido]ethoxy}ethoxy)acetamido]-[4A,7K,9E,17I,18Q,22V,23E,28Y,30W,31L]hPYY (4-36)]", "values": [{"measurement": "Ki", "setting": "[1]", "value": 1.22, "unit": "nM"}, {"measurement": "Acute Food Intake 24 h [% vehicle]", "setting": "normal NMRI mice", "value": 44, "unit": "% vehicle"}]}
{"smiles": "CC(C)CC(=O)N[C@@H](C)C(=O)N1CCC[C@H]1C(=O)N[C@@H](CCC(=O)O)C(=O)N[C@@H](CCCCNC(=O)COCCOCCNC(=O)COCCOCCNC(=O)CC[C@H](NC(=O)CCCCCCCCCCCCCCCCC(=O)O)C(=O)O)C(=O)N1CCC[C@H]1C(=O)N[C@@H](CCC(=O)O)C(=O)N[C@@H](CCC(=O)O)C(=O)N[C@@H](CC(=O)O)C(=O)N[C@@H](C)C(=O)N[C@@H](CO)C(=O)N1CCC[C@H]1C(=O)N[C@@H](CCC(=O)O)C(=O)N[C@@H](CCC(=O)O)C(=O)N[C@H](C(=O)N[C@@H](CCC(N)=O)C(=O)N[C@@H](CCCNC(=N)N)C(=O)N[C@@H](Cc1ccc(O)cc1)C(=O)N[C@@H](Cc1ccc(O)cc1)C(=O)N[C@H](C(=O)N[C@H](C(=O)N[C@@H](CC(C)C)C(=O)N[C@@H](CCCNC(=N)N)C(=O)N[C@@H](Cc1c[nH]cn1)C(=O)N[C@@H](Cc1ccc(O)cc1)C(=O)N[C@@H](Cc1ccc(O)cc1)C(=O)N[C@@H](CC(N)=O)C(=O)N[C@@H](Cc1c[nH]c2ccccc12)C(=O)N[C@@H](CC(C)C)C(=O)N[C@H](C(=O)N[C@@H](CCCNC(=N)N)C(=O)N[C@@H](CCC(N)=O)C(=O)N[C@@H](CCCNC(=N)N)C(=O)N[C@@H](Cc1ccc(O)cc1)C(N)=O)[C@@H](C)O)[C@@H](C)O)C(C)C)[C@@H](C)O", "note": "[Compound 16, N{alpha-4}-(3-methylbutanoyl)-N{epsilon-7}-[2-(2-{2-[2-(2-{2-[(4S)-4-carboxy-4-(17-carboxyheptadecanamido)butanamido]ethoxy}ethoxy)acetamido]ethoxy}ethoxy)acetamido]-[4A,7K,9E,17T,18Q,22V,23T,28Y,30W,31L]hPYY (4-36)]", "values": [{"measurement": "Ki", "setting": "[1]", "value": 3.09, "unit": "nM"}, {"measurement": "Acute Food Intake 24 h [% vehicle]", "setting": "normal NMRI mice", "value": 67, "unit": "% vehicle"}]}
{"smiles": "CC(C)CC(=O)N[C@@H](C)C(=O)N1CCC[C@H]1C(=O)N[C@@H](CCC(=O)O)C(=O)N[C@@H](CCCCNC(=O)COCCOCCNC(=O)COCCOCCNC(=O)CC[C@H](NC(=O)CCCCCCCCCCCCCCCCC(=O)O)C(=O)O)C(=O)N1CCC[C@H]1C(=O)N[C@@H](CCC(=O)O)C(=O)N[C@@H](CCC(=O)O)C(=O)N[C@@H](CC(=O)O)C(=O)N[C@@H](C)C(=O)N[C@@H](CO)C(=O)N1CCC[C@H]1C(=O)N[C@@H](CCC(=O)O)C(=O)N[C@@H](CCC(=O)O)C(=O)N[C@@H](CC(C)C)C(=O)N[C@@H](CCC(N)=O)C(=O)N[C@@H](CCC(N)=O)C(=O)N[C@@H](Cc1ccc(O)cc1)C(=O)N[C@@H](CCC(=O)O)C(=O)N[C@H](C(=O)N[C@@H](CO)C(=O)N[C@@H](CC(C)C)C(=O)N[C@@H](CCCNC(=N)N)C(=O)N[C@@H](Cc1c[nH]cn1)C(=O)N[C@@H](Cc1ccc(O)cc1)C(=O)N[C@@H](Cc1ccc(O)cc1)C(=O)N[C@@H](CC(N)=O)C(=O)N[C@@H](Cc1c[nH]c2ccccc12)C(=O)N[C@@H](CC(C)C)C(=O)N[C@H](C(=O)N[C@@H](CCCNC(=N)N)C(=O)N[C@@H](CCC(N)=O)C(=O)N[C@@H](CCCNC(=N)N)C(=O)N[C@@H](Cc1ccc(O)cc1)C(N)=O)[C@@H](C)O)C(C)C", "note": "[Compound 167, N{alpha-4}-(3-methylbutanoyl)-N{epsilon-7}-[2-(2-{2-[2-(2-{2-[(4S)-4-carboxy-4-(17-carboxyheptadecanamido)butanamido]ethoxy}ethoxy)acetamido]ethoxy}ethoxy)acetamido]-[4A,7K,9E,18Q,19Q,21E,22V,28Y,30W,31L]hPYY (4-36)] (Isovaleryl-APEK([AEEA-AEEA-γGlu-C18 diacid])PEEDASPEELQQYEVSLRHYYNWLTRQRY-NH2)", "values": [{"measurement": "Acute Food Intake 24 h [% vehicle]", "setting": "normal NMRI mice", "value": 73, "unit": "% vehicle"}]}
